According to patent US11773081B2, “Pharmaceutical composition for preventing or treating wound, comprising indirubin derivative as active ingredient” (CK Regeon Inc., priority 2018, dated 2023):

System: diabetic wound
Test: Wound healing effect in diabetic wound animal model (Test Example 8)
Assay type: in vivo, mouse
Description: 3-week-old male C57BL/6N mice (Koatech, South Korea) were used. After accustoming the mice for a week to normal feed, high-fat diet (Product Data—D12492; 60% kcal, hereinafter referred to as HFD) was given for 4 weeks. Then, a diabetes-induced animal model was prepared by intraperitoneally injecting 40 mg/kg streptozocin (Sigma) once daily for a week. The mice were kept in cages maintained at constant temperature (22±2° C.) and relative humidity (40-60%) with light/dark cycles of 12/12 hours.
6 mice of the normal control group and 6 mice per test group of the diabetes-induced animal model of Test Example 7 were prepared. The hair on the back was removed and a 1.5×1.5 cm^2 wound was made on the hair-removed region.
For the normal control group, only 20 μL of an emulsion solution (Kollipore®EL:Tween 80:PEG 400 at a mixing weight ratio of 80:6:14) was applied to the wound site once daily for 14 days. For the negative control group, only 20 μL of the emulsion solution (Kollipore®EL:Tween 80:PEG 400 at a mixing weight ratio of 80:6:14) was applied to the wound site once daily for 14 days. For the test group, 20 μL of A3334 (Example 1) was applied to the wound site once daily for 14 days. Then, the wound site of the animal model was photographed and the wound area was measured on days 0, 1, 3, 7, 10 and 14 (FIG. 10). On day 14, after euthanizing the mouse with carbon dioxide, the wound site tissue was harvested and the histological structure was observed.
A3334 (Example 1) was prepared by preparing an emulsion solution by mixing Kollipore®EL:Tween 80:PEG 400 at a mixing weight ratio of 80:6:14 and then dissolving the A3334 indirubin derivative synthesized in Example 1 to a concentration of 0.5 mM.
The wound closure rate (%) was calculated according to Equation 1. Wound closure rate (%)=[initial wound area on day 0−wound area on measurement day]/[initial wound area on day 0]×100 [Equation 1] […]

## COc1ccc2c(c1)/C(=C1/Nc3ccccc3/C1=N\O)C(=O)N2 [Example 1, 5-methoxylindirubin-3′-oxime]
diabetes-induced C57BL/6N mouse, 1.5×1.5 cm^2 wound, 20 μL of 0.5 mM once daily for 14 days
  healing of the wound site (wound closure rate): healing of the wound site was promoted similarly to the normal control group
diabetes-induced mouse, 14 days
  re-epithelialization (H&E): fast re-epithelialization
diabetes-induced mouse, vs normal and negative control group
  collagen synthesis (Van Gieson's stain, Picrosirius red): increased collagen synthesis
